Reference: ChEMBL document CHEMBL4339232, “Exploiting Chemical Toolboxes for the Expedited Generation of Tetracyclic Quinolines as a Novel Class of PXR Agonists” (ACS Med Chem Lett, 2019)

Tests used:
[1] = molecular target: T1, PXR (Nuclear receptor subfamily 1 group I member 2) (Homo sapiens, UniProt O75469); test: Agonist activity at PXR (unknown origin) assessed as maximum receptor activation response at 20 uM by AlphaScreen assay relative to T0901317; conditions: read-out: Efficacy
T1 sequence (O75469 whole entry): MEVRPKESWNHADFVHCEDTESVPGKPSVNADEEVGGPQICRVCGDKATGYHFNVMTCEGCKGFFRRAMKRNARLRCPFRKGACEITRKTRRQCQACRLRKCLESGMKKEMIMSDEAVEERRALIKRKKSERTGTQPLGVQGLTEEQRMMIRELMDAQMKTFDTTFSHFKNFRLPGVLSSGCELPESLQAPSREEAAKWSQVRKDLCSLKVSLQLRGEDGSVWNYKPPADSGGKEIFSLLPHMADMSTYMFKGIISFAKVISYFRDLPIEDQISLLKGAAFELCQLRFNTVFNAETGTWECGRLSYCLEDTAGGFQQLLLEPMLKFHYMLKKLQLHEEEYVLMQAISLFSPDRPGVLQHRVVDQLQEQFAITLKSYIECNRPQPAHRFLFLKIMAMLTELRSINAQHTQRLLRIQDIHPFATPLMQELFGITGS

[2] = molecular target: T1, PXR (Nuclear receptor subfamily 1 group I member 2); test: Agonist activity at PXR (unknown origin) at 20 uM by AlphaScreen assay relative to T0901317; conditions: read-out: Activity
[3] = molecular target: T2, Nuclear receptor subfamily 1 group I member 2 (Homo sapiens, UniProt O75469); test: Agonist activity at PXR (unknown origin) by AlphaScreen assay
T2 sequence (O75469 whole entry): T1 sequence (O75469 whole entry)

Compound | Emax at 20 µM [1] [%] | activity at 20 µM [2] [%] | EC50 [3] [µM]
c1coc([C@H]2Nc3c(ccc4c3CCCC4)[C@@H]3OCCC[C@H]23)c1 (racemic) | – | < 25 | –
c1cc([C@@H]2Nc3c(ccc4c3CCCC4)[C@@H]3NCC[C@H]23)cs1 (racemic) | – | < 25 | –
c1csc([C@H]2Nc3c(ccc4c3CCCC4)[C@@H]3OCC[C@H]23)c1 (racemic) | – | < 25 | –
c1cc([C@@H]2Nc3c(ccc4c3CCCC4)[C@@H]3NCCC[C@H]23)cs1 (racemic) | – | < 25 | –
c1coc([C@@H]2Nc3c(ccc4c3CCCC4)[C@@H]3OCCC[C@H]23)c1 (racemic) | – | 50 to 75 | –
c1ccc([C@@H]2Nc3c(ccc4c3CCCC4)[C@@H]3OCCC[C@H]23)cc1 (racemic) | – | < 25 | –
c1coc([C@@H]2Nc3c(ccc4c3CCCC4)[C@@H]3NCC[C@H]23)c1 (racemic) | – | < 25 | –
CC(C)(C)OC(=O)N1CCC[C@@H]2[C@H](c3ccccc3)Nc3c(ccc4c3CCCC4)[C@@H]21 (racemic) | – | < 25 | –
c1cc([C@H]2Nc3c(ccc4c3CCCC4)[C@@H]3OCC[C@H]23)cs1 (racemic) | – | 25 to 50 | –
c1ccc([C@@H]2Nc3c(ccc4c3CCCC4)[C@@H]3OCC[C@H]23)cc1 (racemic) | – | 25 to 50 | –
c1ccc([C@H]2Nc3c(ccc4c3CCCC4)[C@@H]3OCC[C@H]23)cc1 (racemic) | – | < 25 | –
c1coc([C@H]2Nc3c(ccc4c3CCCC4)[C@@H]3OCC[C@H]23)c1 (racemic) | – | < 25 | –
c1csc([C@@H]2Nc3c(ccc4c3CCCC4)[C@@H]3OCC[C@H]23)c1 (racemic) | – | 50 to 75 | –
c1coc([C@@H]2Nc3c(ccc4c3CCCC4)[C@@H]3OCC[C@H]23)c1 (racemic) | – | 50 to 75 | –
CC(C)(C)OC(=O)N1CCC[C@@H]2[C@@H](c3ccco3)Nc3c(ccc4c3CCCC4)[C@@H]21 (racemic) | – | 25 to 50 | –
c1cc([C@@H]2Nc3c(ccc4c3CCCC4)[C@@H]3OCC[C@H]23)cs1 (racemic) | 42 | 75 to 100 | 3.5
c1coc([C@@H]2Nc3c(ccc4c3CCCC4)[C@@H]3NCCC[C@H]23)c1 (racemic) | – | < 25 | –
CC(C)(C)OC(=O)N1CCC[C@@H]2[C@H](c3ccco3)Nc3c(ccc4c3CCCC4)[C@@H]21 (racemic) | – | 25 to 50 | –
c1ccc([C@H]2Nc3c(ccc4c3CCCC4)[C@@H]3OCCC[C@H]23)cc1 (racemic) | – | < 25 | –
c1ccc([C@@H]2Nc3c(ccc4c3CCCC4)[C@@H]3NCC[C@H]23)cc1 (racemic) | – | < 25 | –

More lines, now with the values ahead:

Emax at 20 µM [1] [%] | activity at 20 µM [2] [%] | EC50 [3] [µM] | Compound
60 | 50 to 75 | 3.2 | CC(C)(C)OC(=O)N1CC[C@H]2[C@@H](c3ccsc3)Nc3c(ccc4c3CCCC4)[C@H]21
82 to 119 | 75 to 100 | 1.2 to 1.6 | CC(C)(C)OC(=O)N1CC[C@@H]2[C@H]1c1ccc3c(c1N[C@H]2c1ccsc1)CCCC3
– | 50 to 75 | – | CC(C)(C)OC(=O)N1CC[C@@H]2[C@H](c3ccccc3)Nc3c(ccc4c3CCCC4)[C@@H]21 (racemic)
– | < 25 | – | CC(C)(C)OC(=O)N1CCC[C@@H]2[C@@H](c3ccsc3)Nc3c(ccc4c3CCCC4)[C@@H]21 (racemic)
53 | 75 to 100 | 1.5 | CC(C)(C)OC(=O)N1CC[C@@H]2[C@H](c3ccco3)Nc3c(ccc4c3CCCC4)[C@@H]21 (racemic)
– | 50 to 75 | – | CC(C)(C)OC(=O)N1CCC[C@@H]2[C@H](c3ccsc3)Nc3c(ccc4c3CCCC4)[C@@H]21 (racemic)
– | < 25 | – | CC(C)(C)OC(=O)N1CC[C@@H]2[C@@H](c3ccccc3)Nc3c(ccc4c3CCCC4)[C@@H]21 (racemic)
15 | – | 3.7 | CC(C)(C)OC(=O)N1CC[C@@H]2[C@@H](c3ccsc3)Nc3c(ccc4c3CCCC4)[C@@H]21 (racemic)
28 | – | 8.4 | CC(C)(C)OC(=O)N1CC[C@@H]2[C@H](c3ccsc3)Nc3c(ccc4c3CCCC4)[C@@H]21 (racemic)
– | < 25 | – | CC(C)(C)OC(=O)N1CCC[C@@H]2[C@@H](c3ccccc3)Nc3c(ccc4c3CCCC4)[C@@H]21 (racemic)
– | 25 to 50 | – | CC(C)(C)OC(=O)N1CC[C@@H]2[C@@H](c3ccco3)Nc3c(ccc4c3CCCC4)[C@@H]21 (racemic)
